From ChEMBL document CHEMBL5038615, “Discovery of a cinnamyl piperidine derivative as new neddylation inhibitor for gastric cancer treatment” (Eur J Med Chem, 2021)

Legend:
A549 = assay: Antiproliferative activity against human A549 cells assessed as inhibition of cell proliferation measured after 72 hrs by MTT assay; type: functional, cell-based; settings: A549, 72 h
MCF7 = assay: Antiproliferative activity against human MCF7 cells assessed as inhibition of cell proliferation measured after 72 hrs by MTT assay; type: functional, cell-based; settings: MCF7, 72 h
MGC-803 = assay: Antiproliferative activity against human MGC-803 cells assessed as inhibition of cell proliferation measured after 72 hrs by MTT assay; type: functional, cell-based; settings: MGC-803, 72 h
HepG2 = assay: Antiproliferative activity against human HepG2 cells assessed as inhibition of cell proliferation measured after 72 hrs by MTT assay; type: functional, cell-based; settings: HepG2, 72 h
HGC-27 = assay: Antiproliferative activity against human HGC-27 cells assessed as inhibition of cell proliferation measured after 72 hrs by MTT assay; type: functional, cell-based; settings: HGC-27, 72 h
[1] = Cytotoxicity against human GES1 cells assessed as inhibition of cell proliferation measured after 72 hrs by MTT assay; type: toxicity, cell-based

Structure (SMILES)	IC50 (A549) [µM]	IC50 (MCF7) [µM]	IC50 (MGC-803) [µM]	IC50 (HepG2) [µM]	IC50 (HGC-27) [µM]	IC50 at 72 h [1] [µM]
CCCc1ccc(NC(=O)C2CCN(C/C=C/c3ccccc3)CC2)cc1	9.47	9.03	5.21	9.41		
O=C(Nc1nc2ccc(Br)cc2s1)C1CCN(C/C=C/c2ccccc2)CC1	17.7	14.6	4.38	32.1		
CN1CCN(c2ccc(NC(=O)C3CCN(C/C=C/c4ccccc4)CC3)cc2)CC1	19.9	44	14	35.2		
COc1ccc(NC(=O)C2CCN(C/C=C/c3ccccc3)CC2)cc1	83.8	> 100	58.2	88.8		
O=c1[nH]cc(F)c(=O)[nH]1 [FLUOROURACIL]	15.1	9.49	12.1	6.69		
O=C(Nc1cc(-c2cccc(Br)c2)on1)C1CCN(C/C=C/c2ccccc2)CC1	6.53	4.87	4.61	4.42		
O=C(NCc1ccccc1)C1CCN(C/C=C/c2ccccc2)CC1	> 100	> 100	> 100	> 100		
O=C(Nc1cccc(Cl)c1)C1CCN(C/C=C/c2ccccc2)CC1	19.1	16.1	11.3	20		
O=C(Nc1cccc(C(F)(F)F)c1)C1CCN(C/C=C/c2ccccc2)CC1	15.6	16.1	9.59	11.4		
O=C(Nc1ccccc1)C1CCN(C/C=C/c2ccccc2)CC1	69.7	60.2	57.9	90.9		
O=C(Nc1nccs1)C1CCN(C/C=C/c2ccccc2)CC1	34.9	28.6	16.4	22.4		
CC(C)c1ccc(NC(=O)C2CCN(C/C=C/c3ccccc3)CC2)cc1	9.43	9.1	5.2	12.2		
COc1cccc(NC(=O)C2CCN(C/C=C/c3ccccc3)CC2)c1	50.5	42.6	37.2	78.6		
NS(=O)(=O)OC[C@@H]1CC(n2ccc3c(N[C@H]4CCc5ccccc54)ncnc32)C[C@@H]1O (single isomer, unassigned) [PEVONEDISTAT]	47.8	> 100	5.16	8.15	1.25	13.5
O=C(Nc1cccc(F)c1)C1CCN(C/C=C/c2ccccc2)CC1	43.3	33	23.3	51.1		
O=C(Nc1ccccn1)C1CCN(C/C=C/c2ccccc2)CC1	89.3	67.2	45.2	51.1		
CCc1ccc(NC(=O)C2CCN(C/C=C/c3ccccc3)CC2)cc1	19.6	20	11.6	23.3		
CCCCc1ccc(NC(=O)C2CCN(C/C=C/c3ccccc3)CC2)cc1	5.91	5.87	2.57	4.32		
O=C(Nc1cccc2cccnc12)C1CCN(C/C=C/c2ccccc2)CC1	51.6	34.8	38.1	29.5		
O=C(Nc1cccc(Br)c1)C1CCN(C/C=C/c2ccccc2)CC1	16.4	11.5	9.11	19.2		
Cc1ccc(NC(=O)C2CCN(C/C=C/c3ccccc3)CC2)cc1	29.6	30	24.1	33.9		
N#Cc1ccc(NC(=O)C2CCN(C/C=C/c3ccccc3)CC2)cc1	40.2	44.5	28.2	38.3		
O=C(Nc1ccc(F)c(Br)c1)C1CCN(C/C=C/c2ccccc2)CC1	11.7	13.5	9.27	8.19		
COc1ccccc1NC(=O)C1CCN(C/C=C/c2ccccc2)CC1	> 100	> 100	71.2	91.2		
